Data set [1] can be described thus: Solubilizing isobutyl magnolol with other solubilizers. The format is physicochemical. The text has this: It was surprising that dimethyl isosorbide was able to solubilize these analogs.
The format of data set [2] is physicochemical. The source says: The dimethyl isosorbide is capable of solubilizing up to 200 g per liter of neat propyl magnolol or isopropyl magnolol, up to 100 g per liter of isobutyl magnolol, or up to 50 g per liter of butyl magnolol. In certain embodiments, the amount of dimethyl isosorbide is at least 5 times the weight of the propyl magnolol or isopropyl magnolol in the composition. In certain embodiments, the amount of dimethyl isosorbide is at least 10 times the weight of isobutyl magnolol in the composition. In certain embodiments, the amount of dimethyl isosorbide is at least 20 times the weight of butyl magnolol in the composition.

This note sets out measurements from US20140341818A1, “SOLUBILIZED MAGNOLOL ANALOGS” (COLGATE-PALMOLIVE COMPANY, priority 2011, published 2014).

On to `CC(C)Cc1ccc(O)c(-c2cc(CC(C)C)ccc2O)c1` [isobutyl magnolol, 5,5′-di-isobutylbiphenyl-2,2′-diol], for which the ability to solubilize entry in data set [1] (solubilizer C12-15 alkyl benzoate), in data set [1] (solubilizer PEG-7 glyceryl cocoate), in data set [1] (solubilizer PEG-8/SMDI copolymer), in data set [1] (solubilizer PPG-2 hydroxyethyl cocoamide), in data set [1] (solubilizer PPG-5 laureth-5 (Eumulgin ES)) and in data set [1] (solubilizer isopropyl myristate) was “not able to solubilize” throughout. The ability to solubilize result in data set [1] (solubilizer poloxamer 124) is “not able to solubilize”. For the same compound, the “amount of neat magnolol analog solubilized by dimethyl isosorbide” value in data set [2] is on record as “up to 100 g per liter”.
`CC(C)c1ccc(O)c(-c2cc(C(C)C)ccc2O)c1` [isopropyl magnolol, 5,5′-di-isopropylbiphenyl-2,2′-diol]: the “amount of neat magnolol analog solubilized by dimethyl isosorbide” value in data set [2] is reported as “up to 200 g per liter”.
On the same count and under the same terms, the result for `CCCCc1ccc(O)c(-c2cc(CCCC)ccc2O)c1` [butyl magnolol, 5,5′-di-n-butylbiphenyl-2,2′-diol] reads “up to 50 g per liter”; that for `CCCc1ccc(O)c(-c2cc(CCC)ccc2O)c1` [propyl magnolol, 5,5′-di-n-propylbiphenyl-2,2′-diol], “up to 200 g per liter”.
